Like-named read-outs stand apart in the source and are kept apart here.
B1: BmrA E504A mutant (Bacillus subtilis multidrug ABC transporter) (natural protein)
chain: MPTKKQKSKSKLKPFFALVRRTNPSYGKLAFALALSVVTTLVSLLIPLLTKQLVDGFSMSNLSGTQIGLIALVFFVQAGLSAYATYALNYNGQKIISGLRELLWKKLIKLPVSYFDTNASGETVSRVTNDTMVVKELITTHISGFITGIISVIGSLTILFIMNWKLTLLVLVVVPLAALILVPIGRKMFSISRETQDETARFTGLLNQILPEIRLVKASNAEDVEYGRGKMGISSLFKLGVREAKVQSLVGPLISLVLMAALVAVIGYGGMQVSSGELTAGALVAFILYLFQIIMPMGQITTFFTQLQKSIGATERMIEILAEEEEDTVTGKQIENAHLPIQLDRVSFGYKPDQLILKEVSAVIEAGKVTAIVGPSGGGKTTLFKLLERFYSPTAGTIRLGDEPVDTYSLESWREHIGYVSQESPLMSGTIRENICYGLERDVTDAEIEKAAEMAYALNFIKELPNQFDTEVGERGIMLSGGQRQRIAIARALLRNPSILMLDAATSSLDSQSEKSVQQALEVLMEGRTTIVIAHRLSTVVDADQLLFVEKGEITGRGTHHELMASHGLYRDFAEQQLKMNADLENKAG
notes: BmrA, efflux pump of Bacillus subtilis, type-IV MDR ABC transporter; each monomer has 1 TMD and 1 NBD; Homodimer; the plasmid pET15b encodes the mutant fused to a 6-histidine tag at the N-terminal; also called E504A^apo; E504A^R6G; source: E. coli C43(DE3)∆AcrB, pET15b; membranes solubilised in Triton X100, purified (two Ni-NTA steps, Superdex 200) in DDM/sodium cholate

Tests used:
BmrA [1] = molecular target: T1, BmrA (Bacillus subtilis, UniProt O06967, E504A); experiment: biochemical
BmrA [2] = molecular target: T1, BmrA; experiment: biochemical; remark: listed apart in the source
[3] = molecular target: the molecule itself; experiment: cryo-EM structure; purified BmrA E504A at 25 µM in 20 mM HEPES-NaOH pH 7.5, 100 mM NaCl, DDM/sodium cholate; 0, 25, 70, 100 µM or 5 mM ATP-Mg2+, with or without 100 µM R6G, or with Hœchst33342; inward-facing and outward-facing dimers reconstructed

Row | Molecule | Kd (BmrA [1]) [µM] | further results
1 | COc1cccc2c1C(=O)c1c(O)c3c(c(O)c1C2=O)C[C@@](O)(C(=O)CO)C[C@@H]3O[C@H]1C[C@H](N)[C@H](O)[C@H](C)O1 [Doxorubicin] | 7.3 ± 2.2 | –
2 | CCOc1ccc(-c2nc3cc(-c4nc5cc(N6CCN(C)CC6)ccc5[nH]4)ccc3[nH]2)cc1 [Hœchst33342] | 9.6 ± 1.3 | –
3 | Nc1ncnc2c1ncn2[C@@H]1O[C@H](COP(=O)(O)OP(=O)(O)OP(=O)(O)O)[C@@H](O)[C@H]1O [ATP] | – | Kd (BmrA [2]): 154 ± 49 µM
4 | B1 | – | binding result [3]: binds
